Laboratory results published in US8673981B2, “Phenylcyclobutylamide derivatives and their stereoisomers, the preparation processes and uses thereof” (priority 2008, dated 2014).
“Also recorded” adds a separate entry of the source.

Assays:
obese rat model = experiment: Weight-reducing pharmacodynamics study in the obese animal model (nutrient feed, 30 days); assay type: in vivo, Sprague Dawley rats; parameters: Average fat weight coefficient: unit not given here; details: for Average added multiplier of body weight: (final - initial)/initial average body weight; for Average fat weight coefficient: average fat weight/final average body weight; for Average fat weight: intraperitoneal and perirenal fat; for Final average body weight: rats on nutrient feed
Text: The experimental Study of Weight-Reducing on Pharmacodynamics
Same numbers of male and female weanling Sprague Dawley rats (clean grade, 43.3±8.5 g) were obtained from Laboratory Animal Center (Chongqing medical university, China) (Certificate of Approval for Environmental Facilities: SYXK (Yu) 20020007; Certificate of Approval for animal: SCXK (Yu) 20020001). 1.2 Medicine and Preparation: racemic compound hydrochloride of example 7, optical isomers of examples 8, 9, 10 and 11, and positive control Sibutramine Hydrochloride were dissolved in 1% CMC-Na. 1.3 Test Instrument: TGL-16 table model high speed centrifuge (Shanghai Medical Instruments Factory NO. 6); KDC centrifuge (Huicheng Radio Factory, Guangzhou); Sartorius electronic balance (GERMANY); Medical refrigerator temperature (SANYO, JAPAN); thermostat water bath tank (Beijing Xicheng district medical apparatus factory); VXH-3 Mini Vortex Mixer (Shanghai Yuejin Medical Apparatus Facotry). 1.4 Nutrition Feed: the recipe of nutrition feed and basal feed are as follows:
Barley flour 20%, dehydrated vegetable 10%, bean flour 20%, corn flour 16%, yeast 1%, wheat bran 16%, fish meal 10%, bone meal 5%, salt 2%.
In the 100 g basal feed, milk powder 10 g, lard 10 g, egg 1 piece, fresh bean sprouts 250 g, oleum jecoris piscis concentratum 10 drops (including VA 1700 u, VD1700 u) were added.
2.1 Establishment and Grouping of Obese Animal Model
Weanling SD rats were randomly allocated to compound groups with large, middle, small dosages; positive control Sibutramine Hydrochloride groups with large, middle, small dosages; and obese animal model group and blank control group (n=5/group for male; n=5/group for female).
The experimental animals in blank control group were feed with normal feed, and animals in other groups were feed with nutrient feed. All animals have abundant feed for 24 h and can eat casually.
Experimental animals in each group were administrated with corresponding drugs once a day at 9 am for 30 days, with a dosage of 1 ml/100 g body weight. The dosage corresponds to clinical dosage of 10 mg/person/day for Sibutramine, which is transformed according to the equivalent dosage between human and rat. Large dosage group adopts 1.2 mg/kg; middle dosage group adopts 0.6 mg/kg, and small dosage group adopts 0.3 mg/kg. Obese animal model group: […] of 1% CMC-Na solution; blank control group: […] of 1% CMC-Na solution.
Measurements were taken of daily body weight; general status; hair; eye, mouth and nose secretions; feces, urinate and activities.
Intraperitoneal and perirenal fat were weighted, and the fat weight coefficient was calculated by body weight.

[1] = background statement; cited from earlier work
[2] = large dosage 1.2 mg/kg once a day for 30 days
[3] = middle dosage 0.6 mg/kg once a day for 30 days
[4] = small dosage 0.3 mg/kg once a day for 30 days

Structure (SMILES)	Average added multiplier of body weight (obese rat model; [2])	Average fat weight coefficient (obese rat model; [2])	Average fat weight (obese rat model; [2]) [g]	Final average body weight (obese rat model; [2]) [g]	Average added multiplier of body weight (obese rat model; [3])	Average fat weight coefficient (obese rat model; [3])	Average fat weight (obese rat model; [3]) [g]	Final average body weight (obese rat model; [3]) [g]	Average added multiplier of body weight (obese rat model; [4])	Average fat weight coefficient (obese rat model; [4])	Average fat weight (obese rat model; [4]) [g]	Final average body weight (obese rat model; [4]) [g]	Decrease of body weight compared with Sibutramine (obese rat model; obese rats, 30 days)	Effect of decreasing fat weight (obese rat model; obese rats, 30 days, among treatment groups and versus Sibutramine, hydrochloride)	Reduction of basal weight [1]
CCC(C)C(N)C(=O)NC(CC(C)C)C1(c2ccc(Cl)cc2)CCC1.Cl (racemic) [Example 7, 2-amino-N-{1-[1-(4-chlorophenyl)cyclobutyl]-3-methylbutyl}-3-methylvaleramide hydrochloride]	3.2	1.1	2.0	176.2	3.3	1.2	2.1	180.5	3.3	1.2	2.2	186.9			
CC[C@H](C)[C@H](N)C(=O)N[C@@H](CC(C)C)C1(c2ccc(Cl)cc2)CCC1.Cl [Example 8, (2S,3S)-2-amino-N-{(S)-1-[1-(4-chlorophenyl)cyclobutyl]-3-methylbutyl}-3-methylvaleramide hydrochloride]	3.0	1.0	1.7	175.2	3.2	1.0	1.9	185.6	3.4	1.1	2.0	188.9			
CC[C@H](C)[C@H](N)C(=O)N[C@H](CC(C)C)C1(c2ccc(Cl)cc2)CCC1.Cl [Example 9, (2S,3S)-2-amino-N-{(R)-1-[1-(4-chlorophenyl)cyclobutyl]-3-methylbutyl}-3-methylvaleramide hydrochloride]	2.6	0.9	1.4	156.1	2.7	0.9	1.5	167.9	2.8	0.9	1.5	168.1	decreased the body weight evidently	the best; also recorded: significantly better effect than Sibutramine	
CC[C@@H](C)[C@@H](N)C(=O)N[C@@H](CC(C)C)C1(c2ccc(Cl)cc2)CCC1.Cl [Example 10, (2R,3R)-2-amino-N-{(S)-1-[1-(4-chlorophenyl)cyclobutyl]-3-methylbutyl}-3-methylvaleramide hydrochloride]	3.0	1.1	1.9	173.9	3.2	1.2	2.0	180.4	3.2	1.2	2.1	185.0			
CC[C@@H](C)[C@@H](N)C(=O)N[C@H](CC(C)C)C1(c2ccc(Cl)cc2)CCC1.Cl [Example 11, (2R,3R)-2-amino-N-{(R)-1-[1-(4-chlorophenyl)cyclobutyl]-3-methylbutyl}-3-methylvaleramide hydrochloride]	2.8	1.1	1.8	162.4	3.0	1.1	1.9	173.2	3.2	1.2	2.1	181.0			
CC(C)CC(N(C)C)C1(c2ccc(Cl)cc2)CCC1.Cl.O (stereo not drawn) [Sibutramine, 1-(4-chlorophenyl)-N,N-dimethyl-α-(2-methylpropyl)cyclobutanemethanamine hydrochloride monohydrate, reference compound]	2.9	1.1	1.9	165.7	3.2	1.0	1.8	183.2	3.4	1.0	1.9	185.7			5%-10%
